Source: PMC9602407, “Purification, Identification and Molecular Docking of Immunomodulatory Peptides from the Heads of Litopenaeus vannamei” (Foods, 2022)
Where a SMILES comes first, the peptide text is derived from it. Where no end group is shown, it is not given here.

Legend:
TNF-α secretion = test system: TNF-α secretion; design: method as in doi:10.1016/j.jff.2020.103887; conditions: 100 μg/mL; cited from earlier work
splenic lymphocytes = test system: splenic lymphocytes; design: method as in doi:10.1016/j.jff.2020.103887; conditions: 100 μg/mL; cited from earlier work
[1] = design: method as in doi:10.1016/j.jff.2020.103887; conditions: 100 μg/mL; cited from earlier work
pepsin and trypsin = experiment: In vitro gastrointestinal digestion stability (pepsin, then trypsin), read out as MRPR; type: in vitro ADME; conditions: for Maximal increase of MRPR through gastrointestinal digestion compared with the untreated group: 2% (w/w) pepsin pH 2.0 37 °C 2 h, then 2% (w/w) trypsin pH 7.5 37 °C 2 h, 1 mg/mL peptide
Procedure: The macrophages were cultured in a medium (containing 90% DMEM medium, 10% FBS, and 1% double antibody) at 37 °C and 5% CO2. The MRPR was determined following to the MTT assay used by Xu et al.. The density of the log-phase cells was adjusted to 1 × 10^5 cells/mL, and 100 μL/well of cell suspension was seeded in 96-well plates and incubated overnight in an incubator (BB-150-CO2 incubator, Thermo Scientific, Waltham, MA, USA). The perimeter of the 96-well plate was filled with PBS. The old culture medium was then discarded, 200 μL of the sample solution was added (DMEM medium was used to dissolve the sample to the desired concentration), and control and blank groups were set up with DMEM medium. After incubating for 36 h, 200 μL of medium (containing 5% MTT) was added to each well instead of the original medium and cultured in the dark for 4 h. After the supernatant was discarded, 150 μL of DMSO was added, shaken for 20 min at room temperature, and the absorbance was detected at 490 nm by a microplate reader (ELx800, BioTek Instruments, Winooski, VT, USA). The MRPR (%) was calculated using the following formula:Macrophage relative proliferation rate (%) = (A1 − A3)/(A2 − A3) × 100 (1) where A1 and A2 represented the sample solution and DMEM medium with cells (sample and control group), respectively, and A3 represented DMEM medium with no cells (blank group).
For gastrointestinal digestion stability, computer simulated gastrointestinal digestion was first performed using the PeptideCutter (https://web.expasy.org/peptide_cutter/) (accessed on 20 June 2022) with a selection of pepsin (pH > 2) and trypsin. Then, six peptides (10 mg) were dissolved in 10 mL of distilled water, the pH was adjusted to pH 2.0 with 1 M HCl, and then 2% (w/w) pepsin was added and incubated at 37 °C for 2 h to simulate gastric digestion. The pH of the gastric digest was then adjusted to 5.3 with 0.9 M NaHCO3 solution and to pH 7.5 with 1 M NaOH solution. Following this, 2% (w/w) trypsin was added and incubated at 37 °C for 2 h to simulate intestinal digestion. After digestion, the digest was inactivated in a water bath at 100 °C for 10 min, centrifuged at 10,000 r/min for 10 min, and the supernatant was freeze-dried to obtain the gastric intestinal digest of each of the six synthetic peptides. The MRPR was determined using the sample without any treatment as the control.

RGPPP [Pseudostellaria heterophylla peptide from the literature]
TNF-α secretion upregulated to (TNF-α secretion): 827.24 pg/mL
Stimulation index on splenic lymphocytes (splenic lymphocytes): 1.27
Cytokinesis rate increased to [1]: 123.81%

PSPFPYFT [PSPFPYFT]
MRPR after the action of pepsin (pepsin and trypsin; 2% (w/w) pepsin, pH 2.0, 37 °C, 2 h, read-out MRPR, mean ± SD): 143.06 ± 7.71%
MRPR after the action of trypsin (pepsin and trypsin; after pepsin step, 2% (w/w) trypsin, pH 7.5, 37 °C, 2 h, read-out MRPR, mean ± SD): 148.80 ± 0.41%

CSCC[C@H](NC(=O)CNC(=O)[C@@H]1CCCN1)C(=O)N[C@@H](CCCNC(=N)N)C(=O)O [PGMR] (H-PGMR-OH)
Change of activity (MRPR) through gastrointestinal digestion, in words (pepsin and trypsin; pepsin then trypsin, 37 °C, 2 h each, versus untreated group): decreased, but was not significantly different

N=C(N)NCCC[C@H](NC(=O)[C@H](CCC(N)=O)NC(=O)[C@@H](N)Cc1c[nH]c2ccccc12)C(=O)O [WQR] (H-Trp-Gln-Arg-OH)
Maximal increase of MRPR through gastrointestinal digestion compared with the untreated group (pepsin and trypsin; read-out MRPR): 7.36%

GPQGPPGH [GPQGPPGH]
Maximal increase of MRPR through gastrointestinal digestion compared with the untreated group (pepsin and trypsin; read-out MRPR): 4.17%

SAGFPEGF [SAGFPEGF]
Increase of MRPR in the gastric digestion (pepsin and trypsin; 2% (w/w) pepsin, pH 2.0, 37 °C, 2 h, versus untreated): 11.23%
